For series [1], the target named is T1, ATP-dependent translocase ABCB1 (Homo sapiens, UniProt P08183).
Description: TP_TRANSPORTER: inhibition of Rhodamine 123 efflux in NIH-3T3-G185 cells
Series [2] deals with T1, ATP-dependent translocase ABCB1. The source holds these as a separate data set.
Description: TP_TRANSPORTER: inhibition of LDS-751 efflux in NIH-3T3-G185 cells
The target is the same in series [3]. This is another data set of the same source.
Description: TP_TRANSPORTER: inhibition of Daunorubicin efflux in NIH-3T3-G185 cells
The target is the same in series [4]. The source holds these as a separate data set.
Description: TP_TRANSPORTER: inhibition of Tetramethylrosamine efflux in NIH-3T3-G185 cells
Series [5] has the same target. This is another data set of the same source.
Series [6] shares this target. This is another data set of the same source.
Description: TP_TRANSPORTER: inhibition of Fluo-3-AM efflux in NIH-3T3-G185 cells
The target is the same in series [7]. This is another data set of the same source.
Description: TP_TRANSPORTER: inhibition of Calcein-AM efflux in NIH-3T3-G185 cells
Series [8] has the same target. Nature of the series: TP_TRANSPORTER: inhibition of Daunorubicin, LDS-751 and Rhodamine 123 efflux in NIH-3T3-G185 cells. Format: functional, cell-based. The settings on record: mouse.

The term IC50 denotes the concentration at which inhibition is half-maximal. Low readings indicate higher potency, high ones lower potency.

T1 sequence (P08183 whole entry): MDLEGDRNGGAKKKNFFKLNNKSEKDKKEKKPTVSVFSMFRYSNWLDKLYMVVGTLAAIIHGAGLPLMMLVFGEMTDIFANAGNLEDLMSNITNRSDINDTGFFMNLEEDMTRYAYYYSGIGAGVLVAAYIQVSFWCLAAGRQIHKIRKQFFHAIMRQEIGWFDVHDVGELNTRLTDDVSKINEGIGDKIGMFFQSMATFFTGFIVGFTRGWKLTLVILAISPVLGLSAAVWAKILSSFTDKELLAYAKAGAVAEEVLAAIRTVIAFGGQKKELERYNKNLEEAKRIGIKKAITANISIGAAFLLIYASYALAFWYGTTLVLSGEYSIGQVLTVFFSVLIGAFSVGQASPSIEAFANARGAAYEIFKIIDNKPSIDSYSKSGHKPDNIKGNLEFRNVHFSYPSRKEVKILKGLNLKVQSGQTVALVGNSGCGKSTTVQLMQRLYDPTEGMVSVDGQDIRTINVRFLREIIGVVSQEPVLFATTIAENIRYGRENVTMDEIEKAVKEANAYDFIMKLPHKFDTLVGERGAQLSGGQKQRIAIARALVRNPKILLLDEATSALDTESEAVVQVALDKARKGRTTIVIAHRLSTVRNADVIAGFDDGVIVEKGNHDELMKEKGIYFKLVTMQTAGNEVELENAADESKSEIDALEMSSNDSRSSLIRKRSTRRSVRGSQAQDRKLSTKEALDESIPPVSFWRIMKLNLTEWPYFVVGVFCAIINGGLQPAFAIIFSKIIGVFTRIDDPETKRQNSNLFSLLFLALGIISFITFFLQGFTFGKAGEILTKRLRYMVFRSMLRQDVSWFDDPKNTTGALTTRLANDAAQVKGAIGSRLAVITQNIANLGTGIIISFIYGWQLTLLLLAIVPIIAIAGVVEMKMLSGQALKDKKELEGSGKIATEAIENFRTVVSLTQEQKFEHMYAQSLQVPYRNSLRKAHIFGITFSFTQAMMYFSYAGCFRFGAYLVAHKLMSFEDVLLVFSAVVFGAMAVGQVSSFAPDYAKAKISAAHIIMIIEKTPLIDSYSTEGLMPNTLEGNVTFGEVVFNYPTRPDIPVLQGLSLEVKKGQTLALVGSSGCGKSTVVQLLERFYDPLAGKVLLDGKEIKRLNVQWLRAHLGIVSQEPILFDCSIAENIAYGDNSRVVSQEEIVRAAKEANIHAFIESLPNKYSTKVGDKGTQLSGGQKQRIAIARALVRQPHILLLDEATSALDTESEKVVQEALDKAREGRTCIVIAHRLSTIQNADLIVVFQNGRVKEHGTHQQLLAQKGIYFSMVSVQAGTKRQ

Take `CC(=O)O[C@H]1C(=O)[C@@]2(C)[C@H]([C@H](OC(=O)c3ccccc3)[C@]3(O)C[C@H](OC(=O)[C@H](O)[C@@H](NC(=O)c4ccccc4)c4ccccc4)C(C)=C1C3(C)C)[C@]1(OC(C)=O)CO[C@@H]1C[C@@H]2O` [PACLITAXEL]: the results for the IC50 in series [1], in series [2] and in series [3] were 70.2 µM, 53.9 µM and 54 µM, respectively.
`CC[C@H]1OC(=O)[C@H](C)[C@@H](O[C@H]2C[C@@](C)(OC)[C@@H](O)[C@H](C)O2)[C@H](C)[C@@H](O[C@@H]2O[C@H](C)C[C@H](N(C)C)[C@H]2O)[C@](C)(OC)C[C@@H](C)C(=O)[C@H](C)[C@@H](O)[C@]1(C)O` [CLARITHROMYCIN]: the IC50 came out at 15.1 µM in series [1]; 7.2 µM in series [2]; 3.8 µM in series [3]; 23.8 µM in series [4]; 50.2 µM in series [5]; 86.7 µM in series [6]. In series [7], this molecule came in with an IC50 of 56.1 µM.
Consider `OCCN1CCN(CCCN2c3ccccc3Sc3ccc(C(F)(F)F)cc32)CC1` [FLUPHENAZINE], for which the IC50 was 10.4 µM in series [1], 5.7 µM in series [2] and 6.5 µM in series [3].
Regarding `COc1ccc2c(c1)c(CC(=O)O)c(C)n2C(=O)c1ccc(Cl)cc1` [INDOMETHACIN], in series [8], the Activity entry was “is not an inhibitor [-]”.
For the molecule `COc1ccc(CCNCCCC(C#N)(c2cc(OC)c(OC)c(OC)c2)C(C)C)cc1OC` (stereo unspecified) [N-Norgallopamil], the values for the IC50 in series [1], in series [2] and in series [3] were 8.6 µM, 4.9 µM and 3.6 µM, respectively.
With `CC[C@H]1CN2CCc3cc(OC)c(OC)cc3[C@@H]2C[C@@H]1C[C@H]1NCCc2cc(OC)c(OC)cc21` [EMETINE], the IC50 is 9.6 µM in series [1]; 2.4 µM in series [2]; 9.2 µM in series [3]; 207 µM in series [4]; 116 µM in series [5]; 130 µM in series [6]. The IC50 in series [7] is 35.1 µM.
In the case of `CC(C)/N=c1\cc2n(-c3ccc(Cl)cc3)c3ccccc3nc-2cc1Nc1ccc(Cl)cc1` [CLOFAZIMINE], the IC50 in series [1] came to 1 µM; in series [2], 1.1 µM; in series [3], 0.6 µM.
Turning to `COC(=O)[C@H]1[C@H]2C[C@@H]3c4[nH]c5cc(OC)ccc5c4CCN3C[C@H]2C[C@@H](OC(=O)c2cc(OC)c(OC)c(OC)c2)[C@@H]1OC` [RESERPINE], the IC50 in series [1] was 3.9 µM; in series [2], 2.1 µM; in series [3], 0.5 µM; in series [4] it was 5.3 µM; in series [5], 6.1 µM; in series [6], 2.1 µM. In addition, it took 2.6 µM to reach half-maximal inhibition in series [7] (IC50).
Regarding `C=C[C@@]1(C)CC(=O)[C@]2(O)[C@@]3(C)[C@@H](O)CCC(C)(C)[C@@H]3[C@H](O)[C@H](OC(C)=O)[C@@]2(C)O1` [COLFORSIN], the values for the IC50 in series [2] and in series [3] were 188 µM and 80.2 µM, respectively.
For the molecule `c1ccc([P+](c2ccccc2)(c2ccccc2)c2ccccc2)cc1` [TETRAPHENYLPHOSPHONIUM], the IC50 in series [2] amounted to 427 µM; in series [3] it was 490 µM.
Consider `COc1ccccc1OCCNCC(O)COc1cccc2[nH]c3ccccc3c12` (stereo unspecified) [CARVEDILOL], for which the IC50 in series [1] is 6.6 µM; in series [2], 6 µM; in series [3], 4.6 µM.

These data come from ChEMBL document CHEMBL2074145, “Active transport of fluorescent P-glycoprotein substrates: evaluation as markers and interaction with inhibitors” (Biochem Biophys Res Commun, 2001).
